Legend:
tongue cancer = assay: Administration to a human patient, tongue cancer; assay type: in vivo; details: person; 20 g/day for 120 days
uterine cervical cancer = assay type: in vivo, human; details: ingesting CPL
Source text: In the case of elderly people whose metabolic functions are weaker, ingesting a large amount of a drug often causes adverse reactions and invites risks. […] This patient was taking a strong painkiller when fighting against cancer, which could be replaced by a common painkiller after taking CPL.

endometriosis = assay: Administration to human patients, endometriosis; assay type: in vivo
[1] = Examinations after ingestion by healthy subjects and long-term patients; assay type: in vivo, human
diarrhea = assay: Administration to calves, diarrhea; assay type: in vivo, bovine
Source text: Diarrhea frequently occurred in calves when changing to the milk substitute, which is thought to inhibit normal development of the calves. Then farmers may suffer a serious loss.

ovarian cyst = assay: Administration to human patients, ovarian cyst (ultrasonography, MRI); assay type: in vivo
Source text: A case of a patient whose uterus was extirpated due to uterine myoma. This patient has had two celitomies with a caesarean section. They received an examination for cancer because abnormal bleeding has continued recently. […] Moreover, a prominent part was found in part of the cyst and it was suspected to be malign (Photograph (1)).
The size of the ovarian cyst measured with ultrasonography carried out a few days later was reduced down to approximately 4 cm (Photograph (2)).
A case of a patient whose wedding day was drawing close. […] In consideration that hormone abnormalities were the cause, follow-ups were made for 2-3 weeks. Carrying out a subsequent examination, the ovary was further swollen to 6.5 cm (Photograph 5).

[2] = test system: lactate dehydrogenases (LDH); assay: Inhibition of lactate dehydrogenase activity of cancer cells; assay type: biochemical
Source text: (§1) Morphologically, it causes vacuolation, and the expansion of the cytoplasm of cells, disintegration and aggregation of the nucleus. […] These are considered to inhibit not only the synthesis of ATP but also the actions of mRNA and be involved in the synthesis of RNA and DNA, and the generation of intracellular energy by acting on the metabolism of the intracellular organelle such as rough-surfaced endoplasmic reticulum, smooth-surfaced endoplasmic reticulum, ribosome, Golgi apparatus, etc., and as a result, controlling the metabolism of the cells, influencing the synthesis of proteins/glycoprotein, intracellular lipid metabolism, and movement and transport of ions. […] Morphologically, in the case that cells end up degenerating, the degeneration generally changes first to the nucleus followed by the cytoplasm.

[3] = Administration to bovines antepartum; assay type: in vivo, bovine
Source text: From 3 to 5 days before expected date of delivery, 50 g/day of CPL administration was initiated.

laryngeal cancer = assay: Administration to a human patient, laryngeal cancer; assay type: in vivo; details: person; 20 g/day for 150 days
cancer cells = assay: Effects on cancer cells; assay type: cell-based
Source text: as §1

hepatitis C = assay: Administration to a human patient, hepatitis C; assay type: in vivo; details: person; 20 g/day for 16 months
uterine/ovarian cancer = assay: Administration to a human patient, uterine/ovarian cancer with ileus; assay type: in vivo
Method: Person, two years ago, the uterus was extirpated, the ovary and fallopian duct were resected and chemotherapy was performed 3 times. During hospitalization, an ileus tube was inserted due to an ileus. Then intestinal liquid and gas were emitted. A central nutrition tube was inserted into the right subclavian vein because oral ingestion was impossible. An artificial anus and urinary duct tube were attached due to a tumor in the left abdomen. […] Cancerous pain ameliorated and the ingestion of solid food from 3/10- 5/10- 7/10-whole porridge was enabled. Discharged from the hospital 3 months later.

[4] = Blood screening and biochemical examination of blood in bovines given CPL; assay type: in vivo, bovine

Cyclic Poly-lactate [CPL]
outcome of tongue cancer (tongue cancer): completely disappeared
pain of patients suffering from advanced cancer (uterine cervical cancer): diminishes the pain rapidly
CA125 of tumor marker (endometriosis; endometriosis patients, in the majority of the patients): improves
symptoms of menorrhagia (endometriosis; person, 10 g/day orally): ameliorated
menstrual pain (endometriosis; person, 10 g/day orally, next menstruation): ameliorated
effect on results of examinations (physical findings, hematological/biochemical tests, urine and faeces) ([1]; healthy subjects, 6 g/day): not to affect
effect on biogenic basic functions (appetite, sleep, changes in weight, libido) ([1]; human, in vivo): no effect
abnormal findings from examinations ([1]; patients who have taken 6 g/day for 3-5 years): no abnormal findings at all
outcome of diarrhea in calves changing to milk substitute (diarrhea; 20-30 g/day): recovered completely
diarrhea in calves that took CPL (prevention) (diarrhea; 20 g/day for the first 4-5 days): spontaneously cured
time to complete recovery after CPL administration (diarrhea; calves, 20-30 g/day): approximately 3 days
ovarian cyst at preoperative MRI examination (ovarian cyst; patient, 30-40 g/day until operation): disappeared
size of ovarian cyst by ultrasonography (ovarian cyst; patient, 30-40 g/day, a few days later, initially approximately 5 cm): approximately 4 cm
ovarian cyst after further administration (ovarian cyst; person, 2 weeks after further administration): disappeared completely
size of ovarian cyst by ultrasonography (ovarian cyst; person, CPL for 2 weeks, 6.5 cm before): below 4 cm
activity of lactate dehydrogenases (LDH) [2]: inhibits
mastitis prevention ([3]; 50 g/day from 3 to 5 days before expected date of delivery): confirmed to play a role in mastitis prevention
delivery of calves ([3]; 50 g/day initiated 5 days before expected date of delivery): smoothly
outcome of laryngeal cancer (laryngeal cancer): cured
proliferation of cancer cells (cancer cells): controls the proliferation
condition of hepatitis C patient (hepatitis C): satisfactory condition
shadow on the liver (hepatitis C): disappeared
excretion of gas, defecation and amount of urine (uterine/ovarian cancer; person with ileus, 4-6 g/day): increased
ileus symptoms (uterine/ovarian cancer; person, 7 days later): negative
recurrence of ileus symptoms (uterine/ovarian cancer; person, discharged 3 months later): No recurrent ileus symptoms
cancerous pain (uterine/ovarian cancer; person, oral ingestion 15-20 g/day): ameliorated
WBC ([4]; bovine 901 (Screening), 3 May, treatment from 30 April, pretreatment 97): 96 ×10^2
GOT ([4]; bovine 901 (Screening), 3 May, treatment from 30 April, pretreatment 134): 128 U/I
TCHO ([4]; bovine 901 (Screening), 3 May, treatment from 30 April, pretreatment 255): 266 mg/dL
CPK ([4]; bovine 901 (Screening), 3 May, treatment from 30 April, pretreatment 819): 82 U/I
WBC ([4]; bovine 901 (Screening), 7 May, pretreatment 97): 94 ×10^2
GOT ([4]; bovine 901 (Screening), 7 May, pretreatment 134): 116 U/I
TCHO ([4]; bovine 901 (Screening), 7 May, pretreatment 255): 245 mg/dL
CPK ([4]; bovine 901 (Screening), 7 May, pretreatment 819): 97 U/I
WBC ([4]; bovine 901 (Screening), 10 May, completion date of treatment, pretreatment 97): 71 ×10^2
GOT ([4]; bovine 901 (Screening), 10 May, completion date of treatment, pretreatment 134): 115 U/I
TCHO ([4]; bovine 901 (Screening), 10 May, completion date of treatment, pretreatment 255): 286 mg/dL
CPK ([4]; bovine 901 (Screening), 10 May, completion date of treatment, pretreatment 819): 113 U/I
WBC ([4]; bovine 923 (Garget), 3 May, treatment from 30 April, Spectrazol 2-4 May, pretreatment 101): 111 ×10^2
GOT ([4]; bovine 923 (Garget), 3 May, treatment from 30 April, Spectrazol 2-4 May, pretreatment 123): 107 U/I
TCHO ([4]; bovine 923 (Garget), 3 May, treatment from 30 April, Spectrazol 2-4 May, pretreatment 247): 255 mg/dL
CPK ([4]; bovine 923 (Garget), 3 May, treatment from 30 April, Spectrazol 2-4 May, pretreatment 563): 203 U/I
WBC ([4]; bovine 923 (Garget), 7 May, pretreatment 101): 97 ×10^2
GOT ([4]; bovine 923 (Garget), 7 May, pretreatment 123): 81 U/I
TCHO ([4]; bovine 923 (Garget), 7 May, pretreatment 247): 208 mg/dL
CPK ([4]; bovine 923 (Garget), 7 May, pretreatment 563): 133 U/I
WBC ([4]; bovine 923 (Garget), 10 May, completion date of treatment, pretreatment 101): 110 ×10^2
GOT ([4]; bovine 923 (Garget), 10 May, completion date of treatment, pretreatment 123): 107 U/I
TCHO ([4]; bovine 923 (Garget), 10 May, completion date of treatment, pretreatment 247): 259 mg/dL
CPK ([4]; bovine 923 (Garget), 10 May, completion date of treatment, pretreatment 563): 121 U/I
other blood responses such as WBC, GOT, and TCHO ([4]; bovines given CPL): no specific changes
CPK (muscle enzyme) mean level ([4]; group of bovines with markedly high levels of CPK): extremely low
